Experimental data: patent US20030162661A1, “2,4-Diamino-1,3,5-triazines, their preparation, and their use as herbicides and plant growth regulators” (priority 1998, published 2003)

Assays:
[1] = system: harmful plants such as Sinapis alba, Echinochloa crus- galli, Lolium multiflorum, Stellaria media, Cyperus iria, Amaranthus retroflexus, Setaria viridis and …; assay: Post-emergence effect on weeds (greenhouse pot test, visual scoring); format: in vivo; conditions: applied post-emergence (three-leaf stage) at an application rate of 1 kg and less of active substance per hectare; scored visually after about 3 to 4 weeks vs untreated controls
Experimental: 2. Post-emergence Effect on Weeds
Seeds or rhizome pieces of monocotyledonous and dicotyledonous weeds are placed in sandy loam soil in plastic pots, covered with soil and grown in the greenhouse under good growth conditions. Three weeks after sowing, the test plants are treated in the three-leaf stage. The compounds according to the invention which are formulated as wettable powders or as emulsion concentrates are sprayed in various dosages on the green parts of the plants at an application rate of 600 to 800 l of water/ha (converted). After the test plants have remained in the greenhouse for about 3 to 4 weeks under ideal growth conditions, the effect of the preparations is scored visually by comparison with untreated controls. The agents according to the invention also have a good herbicidal post-emergence action against a broad range of economically important grass weeds and dicotyledonous weeds.

[2] = system: harmful plants such as Stellaria media, Lolium multiflorum, Amaranthus retroflexus, Sinapis alba, Avena sativa and Setaria viridis; assay: Pre-emergence effect on weeds (greenhouse pot test, visual scoring); format: in vivo; conditions: applied pre-emergence at an application rate of 1 kg or less of active substance per hectare; scored visually after 3 to 4 weeks vs untreated controls;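 also: scored as plant damage or reduced emergence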
Text: 1 Pre-emergence Effect on Weeds
Seeds or rhizome pieces of monocotyledonous and dicotyledonous weeds plants are placed in sandy loam soil in plastic pots and covered with soil. The compounds according to the invention which are formulated in the form of wettable powders or emulsion concentrates are then applied to the surface of the soil cover in the form of an aqueous suspension or emulsion at an application rate of 600 to 800 l of water/ha (converted), in various dosages.

| SMILES | herbicidal action against harmful plants, post-emergence [1] | herbicidal action against harmful plants, pre-emergence [2] |
| --- | --- | --- |
| CC(C)c1nc(N)nc(NC(CCc2ccccc2)C2CCOC2)n1 (stereo not drawn) [Example 20-2] | very good herbicidal action | very good herbicidal action |
| CC(F)c1nc(N)nc(NC(CCCc2ccccc2)C2CC2)n1 (stereo not drawn) [Example 22-3] | very good herbicidal action | very good herbicidal action |
| Cc1nc(N)nc(NC(CCCc2ccccc2)C2CC2)n1 (stereo not drawn) [Example 22-8] | very good herbicidal action | very good herbicidal action |
| CCc1nc(N)nc(NC(CCCc2ccccc2)C2CC2)n1 (stereo not drawn) [Example 22-9] | very good herbicidal action | very good herbicidal action |
| CC(C)c1nc(N)nc(NC(CCCc2ccccc2)C2CC2)n1 (stereo not drawn) [Example 22-11] | very good herbicidal action | very good herbicidal action |
| CC(C)(F)c1nc(N)nc(NC(CCCc2ccccc2)C2CC2)n1 (stereo not drawn) [Example 22-12, 2-Amino-4-(1-fluoro-1-methylethyl)-6-(1-phenyl-4-cyclopropyl-4-butylamino)-1,3,5-triazine] | very good herbicidal action | very good herbicidal action |
| CC(C)(F)c1nc(N)nc(NC(CCCc2cccc(Cl)c2)C2CC2)n1 (stereo not drawn) [Example 22-18] | very good herbicidal action | very good herbicidal action |
| CC(C)(F)c1nc(N)nc(NC(CCCc2cccc(F)c2)C2CC2)n1 (stereo not drawn) [Example 22-24] | very good herbicidal action | very good herbicidal action |
| CC(C)c1nc(N)nc(NC(CCCc2cccc(F)c2)C2CC2)n1 (stereo not drawn) [Example 22-25] | very good herbicidal action | very good herbicidal action |
| Cc1cccc(CCCC(Nc2nc(N)nc(C(C)C)n2)C2CC2)c1 (stereo not drawn) [Example 22-26] | very good herbicidal action | very good herbicidal action |
| Cc1cccc(CCCC(Nc2nc(N)nc(C(C)(C)F)n2)C2CC2)c1 (stereo not drawn) [Example 22-27] | very good herbicidal action | very good herbicidal action |
| Cc1cc(C)cc(CCCC(Nc2nc(N)nc(C(C)(C)F)n2)C2CC2)c1 (stereo not drawn) [Example 22-28, 2-Amino-4-(1-fluoro-1-methylethyl)-6-[4-(3,5-dimethylphenyl)-1-cyclopropyl-1-butylamino]-1,3,5-triazine] | very good herbicidal action | very good herbicidal action |
| COc1cccc(CCCC(Nc2nc(N)nc(C(C)C)n2)C2CC2)c1 (stereo not drawn) [Example 22-29] | very good herbicidal action | very good herbicidal action |
| COc1cccc(CCCC(Nc2nc(N)nc(C(C)(C)F)n2)C2CC2)c1 (stereo not drawn) [Example 22-30] | very good herbicidal action | very good herbicidal action |
| CC(C)c1nc(N)nc(NC(CCCc2ccccc2)C2CCC2)n1 (stereo not drawn) [Example 28-4] | very good herbicidal action | very good herbicidal action |
| CC(C)Cc1nc(N)nc(NC(CCCc2ccccc2)C2CCC2)n1 (stereo not drawn) [Example 28-5] | very good herbicidal action | very good herbicidal action |
| CC(C)(F)c1nc(N)nc(NC(CCCc2ccccc2)C2CCC2)n1 (stereo not drawn) [Example 28-10] | very good herbicidal action | very good herbicidal action |
| CC(C)c1nc(N)nc(NC(CCCc2cccc(Cl)c2)C2CCC2)n1 (stereo not drawn) [Example 28-13] | very good herbicidal action | very good herbicidal action |
| CC(C)(F)c1nc(N)nc(NC(CCCc2cccc(Cl)c2)C2CCC2)n1 (stereo not drawn) [Example 28-14] | very good herbicidal action | very good herbicidal action |
| Cc1cccc(CCCC(Nc2nc(N)nc(C(C)C)n2)C2CCC2)c1 (stereo not drawn) [Example 28-17] | very good herbicidal action | very good herbicidal action |

| SMILES | herbicidal action against harmful plants, post-emergence [1] | herbicidal action against harmful plants, pre-emergence [2] |
| --- | --- | --- |
| COc1cccc(CCCC(Nc2nc(N)nc(C(C)C)n2)C2CCC2)c1 (stereo not drawn) [Example 28-20] | very good herbicidal action | very good herbicidal action |
| COc1cccc(CCCC(Nc2nc(N)nc(C(C)(C)F)n2)C2CCC2)c1 (stereo not drawn) [Example 28-21] | very good herbicidal action | very good herbicidal action |
| CC(C)c1nc(N)nc(NC(CCCCc2ccccc2)C2CC2)n1 (stereo not drawn) [Example 30-1] | very good herbicidal action | very good herbicidal action |
| CC(C)(F)c1nc(N)nc(NC(CCCCc2ccccc2)C2CC2)n1 (stereo not drawn) [Example 30-2] | very good herbicidal action | very good herbicidal action |
| CC(C)(F)c1nc(N)nc(NC(CCCCc2ccccc2)C2CCC2)n1 (stereo not drawn) [Example 31-1] | very good herbicidal action | very good herbicidal action |
| Nc1nc(NC(CCCCc2ccccc2)C2CCC2)nc(C(F)(F)F)n1 (stereo not drawn) [Example 31-2] | very good herbicidal action | very good herbicidal action |
| CC(C)c1nc(N)nc(NC(CCCCc2ccccc2)C2CCC2)n1 (stereo not drawn) [Example 31-3] | very good herbicidal action | very good herbicidal action |
| CC(C)c1nc(N)nc(NC(CCc2ccccc2)CC2CC2)n1 (stereo not drawn) [Example 32-1] | very good herbicidal action | very good herbicidal action |
| CC(C)(F)c1nc(N)nc(NC(CCc2ccccc2)CC2CC2)n1 (stereo not drawn) [Example 32-2] | very good herbicidal action | very good herbicidal action |
| CC(C)c1nc(N)nc(NC(CCc2cccc(Cl)c2)CC2CC2)n1 (stereo not drawn) [Example 32-5] | very good herbicidal action | very good herbicidal action |
| CC(C)(F)c1nc(N)nc(NC(CCc2cccc(Cl)c2)CC2CC2)n1 (stereo not drawn) [Example 32-6] | very good herbicidal action | very good herbicidal action |
| Cc1cccc(CCC(CC2CC2)Nc2nc(N)nc(C(C)C)n2)c1 (stereo not drawn) [Example 32-9] | very good herbicidal action | very good herbicidal action |
| Cc1cccc(CCC(CC2CC2)Nc2nc(N)nc(C(C)(C)F)n2)c1 (stereo not drawn) [Example 32-10] | very good herbicidal action | very good herbicidal action |
| COc1cccc(CCC(CC2CC2)Nc2nc(N)nc(C(C)C)n2)c1 (stereo not drawn) [Example 32-11] | very good herbicidal action | very good herbicidal action |
| COc1cccc(CCC(CC2CC2)Nc2nc(N)nc(C(C)(C)F)n2)c1 (stereo not drawn) [Example 32-12] | very good herbicidal action | very good herbicidal action |
| CC(C)(F)c1nc(N)nc(NC(CCc2ccccc2)CC2CC2(F)F)n1 (stereo not drawn) [Example 33-2] | very good herbicidal action | very good herbicidal action |
| CCc1nc(N)nc(NC(CCc2ccccc2)CC2CC2(F)F)n1 (stereo not drawn) [Example 33-4] | very good herbicidal action | very good herbicidal action |
| CC(C)(F)c1nc(N)nc(NC(C=Cc2ccccc2)C2CC2)n1 (stereo not drawn) [Example 44-1] | very good herbicidal action | very good herbicidal action |
| CC(C)c1nc(N)nc(NC(C=Cc2ccccc2)C2CC2)n1 (stereo not drawn) [Example 44-2] | very good herbicidal action | very good herbicidal action |
